Laboratory results from patent US12673961B2 (Agios Pharmaceuticals, Inc., priority 2022, dated 2026).

molecular target: T1, human PAH with the R408W mutation (Homo sapiens, UniProt P00439, R408W); assay: Cell Based Phenylalanine Flux Assay; conditions: A375 cells expressing human R408W PAH; 24 hrs compound incubation; 13C-Tyrosine by LC-MS; average where tested multiple times; read-out: AC50;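 also: Ten-point dose curve from 2-fold serial dilutions, run in duplicate at 0.5% DMSO final, tracer step used 20 µM sepiapterin and 800 µM labeled phenylalanine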
T1 construct: expressed in transfected cells
T1 sequence (P00439 1-452 R408W): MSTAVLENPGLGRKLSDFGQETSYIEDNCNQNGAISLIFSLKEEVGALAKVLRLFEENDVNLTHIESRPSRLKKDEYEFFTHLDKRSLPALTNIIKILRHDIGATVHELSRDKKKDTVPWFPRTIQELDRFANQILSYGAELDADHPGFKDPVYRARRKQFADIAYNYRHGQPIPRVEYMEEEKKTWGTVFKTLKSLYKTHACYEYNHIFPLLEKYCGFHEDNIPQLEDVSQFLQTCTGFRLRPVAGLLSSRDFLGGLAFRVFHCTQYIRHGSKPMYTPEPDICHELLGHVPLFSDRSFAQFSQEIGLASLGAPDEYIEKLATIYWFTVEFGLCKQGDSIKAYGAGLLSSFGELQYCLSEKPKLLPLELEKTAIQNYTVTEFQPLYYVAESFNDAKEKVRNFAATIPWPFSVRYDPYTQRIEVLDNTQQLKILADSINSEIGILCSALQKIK

First: Cc1ncoc1C(=O)N1CCc2[nH]cnc2[C@@H]1c1cc2cccc(Cl)n2n1 [Example 1175, (R)-(4-(7-chloropyrazolo [1,5-a]pyridin-2-yl)-6,7-dihydro-1H-imidazo[4,5-c]pyridin-5(4H)-yl)(4-methyloxazol-5-yl)methanone]
Second: Cc1ncoc1C(=O)N1CCc2[nH]cnc2[C@H]1c1cc2cccc(C(F)(F)F)n2n1 [Example 1198]
The AC50 of the first is higher: 1000 to 5000 nM for the first, 500 to 1000 nM for the second.

First: Cc1ccn2nc([C@H]3c4nc[nH]c4CCN3C(=O)c3cnco3)cc2c1 [Example 1184, (R)-(4-(5-methylpyrazolo [1,5-a]pyridin-2-yl)-6,7-dihydro-1H-imidazo[4,5-c]pyridin-5(4H)-yl)(oxazol-5-yl)methanone]
Second: Cc1ccn2nc([C@@H]3c4nc[nH]c4CCN3C(=O)c3cnco3)cc2c1 [Example 1185, (S)-(4-(5-methylpyrazolo [1,5-a]pyridin-2-yl)-6,7-dihydro-1H-imidazo[4,5-c]pyridin-5(4H)-yl)(oxazol-5-yl)methanone]
The AC50 of the first is lower: 500 to 1000 nM for the first, 1000 to 5000 nM for the second.

`Cc1c(-c2nnc(C(=O)N3CCc4[nH]cnc4[C@H]3c3cc4cccc(C)n4n3)o2)cnn1C` [Example 1188, (S)-(5-(1,5-dimethyl-1H-pyrazol-4-yl)-1,3,4-oxadiazol-2-yl)(4-(7-methylpyrazolo[1,5-a]pyridin-2-yl)-6,7-dihydro-1H-imidazo[4,5-c]pyridin-5(4H)-yl)methanone] and `Cc1c(-c2nnc(C(=O)N3CCc4[nH]cnc4[C@H]3c3cc4cccc(C(F)(F)F)n4n3)o2)cnn1C` [Example 1190, (S)-(5-(1,5-dimethyl-1H-pyrazol-4-yl)-1,3,4-oxadiazol-2-yl)(4-(7-(trifluoromethyl)pyrazolo[1,5-a]pyridin-2-yl)-6,7-dihydro-1H-imidazo [4,5-c]pyridin-5(4H)-yl)methanone] fall in the same range of AC50: 500 to 1000 nM for the first, 500 to 1000 nM for the second.

`C[C@@H](O)c1nc(C(F)F)c(C(=O)N2CCc3[nH]cnc3[C@H]2c2cc3cccc(Cl)n3n2)o1` [Example 1196, ((S)-4-(7-chloropyrazolo [1,5-a]pyridin-2-yl)-6,7-dihydro-1H-imidazo[4,5-c]pyridin-5(4H)-yl)(4-(difluoromethyl)-2-((R)-1-hydroxyethyl)oxazol-5-yl)methanone] and `Cc1cccc2cc([C@@H]3c4nc[nH]c4CCN3C(=O)c3oc(C4(O)CC4)nc3C(F)F)nn12` [Example 1280, (S)-(4-(difluoromethyl)-2-(1-hydroxycyclopropyl)oxazol-5-yl)(4-(7-methylpyrazolo[1,5-a]pyridin-2-yl)-6,7-dihydro-1H-imidazo[4,5-c]pyridin-5(4H)-yl)methanone] cannot be ordered by AC50: under 500 nM for the first, under 500 nM for the second.

First: Cc1ncoc1C(=O)N1CCc2[nH]cnc2[C@@H]1c1cc2cccc(C(F)(F)F)n2n1 [Example 1199]
Second: Cc1nc(C(C)(C)F)oc1C(=O)N1CCc2[nH]cnc2[C@H]1c1cc2cccc(C(F)(F)F)n2n1 [Example 1265, (S)-(2-(2-fluoropropan-2-yl)-4-methyloxazol-5-yl)(4-(7-(trifluoromethyl)pyrazolo [1,5-a]pyridin-2-yl)-6,7-dihydro-1H-imidazo[4,5-c]pyridin-5(4H)-yl)methanone]
The AC50 of the first is higher: 1000 to 5000 nM for the first, under 500 nM for the second.

Going from `COc1cccn2nc([C@H]3c4nc[nH]c4CCN3C(=O)c3nnc(-c4cnn(C)c4C)o3)cc12` [Example 1207, (R)-(5-(1,5-dimethyl-1H-pyrazol-4-yl)-1,3,4-oxadiazol-2-yl)(4-(4-methoxypyrazolo [1,5-a]pyridin-2-yl)-6,7-dihydro-1H-imidazo[4,5-c]pyridin-5(4H)-yl)methanone] to `Cc1c(-c2nnc(C(=O)N3CCc4[nH]cnc4[C@H]3c3cc4c(Cl)cccn4n3)o2)cnn1C` [Example 1214, (S)-(4-(4-chloropyrazolo [1,5-a]pyridin-2-yl)-6,7-dihydro-1H-imidazo[4,5-c]pyridin-5(4H)-yl)(5-(1,5-dimethyl-1H-pyrazol-4-yl)-1,3,4-oxadiazol-2-yl)methanone], the AC50 falls from over 5000 nM to under 500 nM.

`Cc1cccn2nc([C@@H]3c4nc[nH]c4CCN3C(=O)c3oc(C4(O)CC4)nc3C(F)F)cc12` [Example 1220, (S)-(4-(difluoromethyl)-2-(1-hydroxycyclopropyl)oxazol-5-yl)(4-(4-methylpyrazolo[1,5-a]pyridin-2-yl)-6,7-dihydro-1H-imidazo[4,5-c]pyridin-5(4H)-yl)methanone] and `O=C(c1nnc(-c2ccccn2)o1)N1CCc2[nH]cnc2[C@H]1c1cc2c(C(F)F)cccn2n1` [Example 1314, (S)-(4-(4-(difluoromethyl)pyrazolo[1,5-a]pyridin-2-yl)-6,7-dihydro-1H-imidazo [4,5-c]pyridin-5(4H)-yl)(5-(pyridin-2-yl)-1,3,4-oxadiazol-2-yl)methanone] cannot be ordered by AC50: under 500 nM for the first, under 500 nM for the second.

`Cn1cc(-c2nnc(C(=O)N3CCc4[nH]cnc4[C@H]3c3cc4cccc(F)n4n3)o2)cn1` [Example 1224, (S)-(4-(7-fluoropyrazolo[1,5-a]pyridin-2-yl)-6,7-dihydro-1H-imidazo[4,5-c]pyridin-5(4H)-yl)(5-(1-methyl-1H-pyrazol-4-yl)-1,3,4-oxadiazol-2-yl) methanone] and `O=C(c1nnc(C2CC2)o1)N1CCc2[nH]cnc2[C@H]1c1cc2cccc(F)n2n1` [Example 1246, (S)-(5-cyclopropyl-1,3,4-oxadiazol-2-yl)(4-(7-fluoropyrazolo[1,5-a]pyridin-2-yl)-6,7-dihydro-1H-imidazo[4,5-c]pyridin-5(4H)-yl)methanone] fall in the same range of AC50: 500 to 1000 nM for the first, 500 to 1000 nM for the second.

`O=C(c1nnc(C2CC2)o1)N1CCc2[nH]cnc2[C@@H]1c1cc2cccc(F)n2n1` [Example 1247, (R)-(5-cyclopropyl-1,3,4-oxadiazol-2-yl)(4-(7-fluoropyrazolo[1,5-a]pyridin-2-yl)-6,7-dihydro-1H-imidazo[4,5-c]pyridin-5(4H)-yl)methanone] and `Cc1cccc2cc([C@H]3c4nc[nH]c4CCN3C(=O)c3nnc(C4(C)CC4)o3)nn12` [Example 1318, (R)-(5-(1-methylcyclopropyl)-1,3,4-oxadiazol-2-yl)(4-(7-methylpyrazolo[1,5-a]pyridin-2-yl)-6,7-dihydro-1H-imidazo[4,5-c]pyridin-5(4H)-yl)methanone] fall in the same range of AC50: 1000 to 5000 nM for the first, 1000 to 5000 nM for the second.

First: O=C(c1nnc(-c2ccncn2)o1)N1CCc2[nH]cnc2[C@H]1c1cc2c(F)cccn2n1 [Example 1258, (S)-(4-(4-fluoropyrazolo[1,5-a]pyridin-2-yl)-6,7-dihydro-1H-imidazo[4,5-c]pyridin-5(4H)-yl)(5-(pyrimidin-4-yl)-1,3,4-oxadiazol-2-yl)methanone]
Second: Cc1ncccc1-c1nnc(C(=O)N2CCc3[nH]cnc3[C@@H]2c2cc3c(F)cccn3n2)o1 [Example 1329, (R)-(4-(4-fluoropyrazolo [1,5-a]pyridin-2-yl)-6,7-dihydro-1H-imidazo[4,5-c]pyridin-5(4H)-yl)(5-(2-methylpyridin-3-yl)-1,3,4-oxadiazol-2-yl)methanone]
The AC50 of the first is lower: 500 to 1000 nM for the first, over 5000 nM for the second.

`COc1ccc(-c2nnc(C(=O)N3CCc4[nH]cnc4[C@H]3c3cc4c(Cl)cccn4n3)o2)nc1` [Example 1299, (S)-(4-(4-chloropyrazolo [1,5-a]pyridin-2-yl)-6,7-dihydro-1H-imidazo[4,5-c]pyridin-5(4H)-yl)(5-(5-methoxypyridin-2-yl)-1,3,4-oxadiazol-2-yl)methanone] and `O=C(c1nnc(-c2cnccn2)o1)N1CCc2[nH]cnc2[C@H]1c1cc2c(Cl)cccn2n1` [Example 1332, (S)-(4-(4-chloropyrazolo [1,5-a]pyridin-2-yl)-6,7-dihydro-1H-imidazo[4,5-c]pyridin-5(4H)-yl)(5-(pyrazin-2-yl)-1,3,4-oxadiazol-2-yl)methanone] cannot be ordered by AC50: under 500 nM for the first, under 500 nM for the second.

`Cc1ncccc1-c1nnc(C(=O)N2CCc3[nH]cnc3[C@@H]2c2cc3c(C(F)(F)F)cccn3n2)o1` [Example 1305, (R)-(5-(2-methylpyridin-3-yl)-1,3,4-oxadiazol-2-yl)(4-(4-(trifluoromethyl)pyrazolo [1,5-a]pyridin-2-yl)-6,7-dihydro-1H-imidazo[4,5-c]pyridin-5(4H)-yl)methanone] and `O=C(c1nnc(-c2ccccn2)o1)N1CCc2[nH]cnc2[C@@H]1c1cc2c(C(F)F)cccn2n1` [Example 1315, (R)-(4-(4-(difluoromethyl)pyrazolo[1,5-a]pyridin-2-yl)-6,7-dihydro-1H-imidazo [4,5-c]pyridin-5(4H)-yl)(5-(pyridin-2-yl)-1,3,4-oxadiazol-2-yl)methanone] fall in the same range of AC50: 1000 to 5000 nM for the first, 1000 to 5000 nM for the second.

Compared with `COc1cccn2nc([C@@H]3c4nc[nH]c4CCN3C(=O)c3cnn4ccccc34)cc12` [Example 1326, (S)-(4-(4-methoxypyrazolo [1,5-a]pyridin-2-yl)-6,7-dihydro-1H-imidazo [4,5-c]pyridin-5(4H)-yl)(pyrazolo[1,5-a]pyridin-3-yl)methanone], `O=C(c1nnc(-c2cnccn2)o1)N1CCc2[nH]cnc2[C@@H]1c1cc2c(Cl)cccn2n1` [Example 1333, (R)-(4-(4-chloropyrazolo [1,5-a]pyridin-2-yl)-6,7-dihydro-1H-imidazo[4,5-c]pyridin-5(4H)-yl)(5-(pyrazin-2-yl)-1,3,4-oxadiazol-2-yl)methanone] is higher in AC50: under 500 nM for the first, 1000 to 5000 nM for the second.

For `O=C(c1nnc(-c2cccnc2)o1)N1CCc2[nH]cnc2[C@H]1c1cc2cccc(C(F)(F)F)n2n1` [Example 1340, (S)-(5-(pyridin-3-yl)-1,3,4-oxadiazol-2-yl)(4-(7-(trifluoromethyl)pyrazolo [1,5-a]pyridin-2-yl)-6,7-dihydro-1H-imidazo[4,5-c]pyridin-5(4H)-yl)methanone], the AC50 was 500 to 1000 nM.
